# Test results from PubChem BioAssay AID220 (DTP/NCI, 2004).
# Several values for one entry are separate records, joined by “and”; a condition that tells them apart may be missing. Equal values may be shown once. Inconclusive results are not listed.
# Tested on: CD8F1 mice, subcutaneous mammary adenocarcinoma, T/C%
# Assay: NCI In Vivo Anticancer Drug Screen. Data for tumor model Mammary Adenocarcinoma CD8F1 (subcutaneous) in CD8F1
# Conditions: higher = larger tumour
# Method in brief: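 Mice carrying transplanted tumors received test compound, and survival or tumor size was recorded. Each value is the treated-group measurement divided by the corresponding measurement in vehicle-dosed controls.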
# [1] = endpoint: median tumor weight (est.), dose: 100.0 mg/kg/injection, schedule: Q07DX005 (ip), vehicle: saline
# [2] = endpoint: median tumor weight (est.), dose: 200.0 mg/kg/injection, schedule: Q07DX005 (ip), vehicle: saline
# [3] = endpoint: median tumor weight (est.), dose: 400.0 mg/kg/injection, schedule: Q07DX005 (ip), vehicle: saline
# [4] = endpoint: median tumor weight (est.), dose: 800.0 mg/kg/injection, schedule: Q07DX005 (ip), vehicle: saline
# [5] = endpoint: median tumor weight (est.), dose: 50.0 mg/kg/injection, schedule: Q07DX005 (ip), vehicle: saline
# [6] = endpoint: median tumor weight (est.), dose: 50.0 mg/kg/injection, schedule: Q07DX005 (ip), vehicle: Klucel (hydroxypropylcellulose) (HPC)
# [7] = endpoint: median tumor weight (est.), dose: 100.0 mg/kg/injection, schedule: Q07DX005 (ip), vehicle: Klucel (hydroxypropylcellulose) (HPC)
# [8] = endpoint: median tumor weight (est.), dose: 200.0 mg/kg/injection, schedule: Q07DX005 (ip), vehicle: Klucel (hydroxypropylcellulose) (HPC)
# [9] = endpoint: median tumor weight (est.), dose: 400.0 mg/kg/injection, schedule: Q07DX005 (ip), vehicle: Klucel (hydroxypropylcellulose) (HPC)
# [10] = endpoint: median tumor weight (est.), dose: 12.5 mg/kg/injection, schedule: Q07DX005 (ip), vehicle: Klucel (hydroxypropylcellulose) (HPC)
# [11] = endpoint: median tumor weight (est.), dose: 25.0 mg/kg/injection, schedule: Q07DX005 (ip), vehicle: Klucel (hydroxypropylcellulose) (HPC)
compound,measurement,setting,value
CC[N+](CC)(CC)CC,T/C,"endpoint: median tumor weight (est.), dose: 0.78 mg/kg/injection, schedule: Q07DX005 (ip), vehicle: saline with Tween-80",96 % of control
same,T/C,"endpoint: median tumor weight (est.), dose: 1.56 mg/kg/injection, schedule: Q07DX005 (ip), vehicle: saline with Tween-80",71 % of control and 84 % of control
same,T/C,"endpoint: median tumor weight (est.), dose: 3.12 mg/kg/injection, schedule: Q07DX005 (ip), vehicle: saline with Tween-80",21 % of control and 38 % of control
same,T/C,"endpoint: median tumor weight (est.), dose: 6.25 mg/kg/injection, schedule: Q07DX005 (ip), vehicle: saline with Tween-80",10 % of control and 27 % of control
same,T/C,"endpoint: median tumor weight change, dose: 5.0 mg/kg/injection, schedule: Q01DX001 (ip), vehicle: saline with Tween-80",38 % of control
same,T/C,"endpoint: median tumor weight change, dose: 10.0 mg/kg/injection, schedule: Q01DX001 (ip), vehicle: saline with Tween-80",20 % of control
same,T/C,"endpoint: median tumor weight change, dose: 12.0 mg/kg/injection, schedule: Q01DX001 (ip), vehicle: saline with Tween-80",54 % of control and 61 % of control
same,T/C,"endpoint: median tumor weight change, dose: 15.0 mg/kg/injection, schedule: Q01DX001 (ip), vehicle: saline with Tween-80",86 % of control
same,T/C,"endpoint: median tumor weight change, dose: 20.0 mg/kg/injection, schedule: Q01DX001 (ip), vehicle: saline with Tween-80",22 % of control
same,T/C,"endpoint: median tumor weight change, dose: 30.0 mg/kg/injection, schedule: Q01DX001 (ip), vehicle: saline with Tween-80",15 % of control
same,T/C,"endpoint: median tumor weight change, dose: 40.0 mg/kg/injection, schedule: Q01DX001 (ip), vehicle: saline with Tween-80",8 % of control
CCOC(=O)Nc1cc2c(c(N)n1)N=C(c1ccccc1)CN2,T/C,"endpoint: median tumor weight change, dose: 6.25 mg/kg/injection, schedule: Q01DX001 (ip), vehicle: saline with Tween-80",86 % of control
same,T/C,"endpoint: median tumor weight change, dose: 12.5 mg/kg/injection, schedule: Q01DX001 (ip), vehicle: saline with Tween-80",35 % of control
O=C(O)CP(=O)(O)O,T/C,[1],90 % of control
same,T/C,[2],97 % of control
same,T/C,[3],57 % of control
same,T/C,[4],79 % of control
COC(=O)C(N)Cc1ccc(O)c(O)c1 (stereo unspecified),T/C,[1],195 % of control
same,T/C,[3],112 % of control
same,T/C,[4],108 % of control
Cc1c2cc[n+](CCN3CCCCC3)cc2c(C)c2c1[nH]c1ccc(O)cc12,T/C,"endpoint: median tumor weight change, dose: 7.81 mg/kg/injection, schedule: Q01DX001 (ip), vehicle: suspension in saline",83 % of control
same,T/C,"endpoint: median tumor weight change, dose: 15.6 mg/kg/injection, schedule: Q01DX001 (ip), vehicle: suspension in saline",102 % of control and 116 % of control
O=CC(S)CO (stereo unspecified),T/C,"endpoint: median tumor weight (est.), dose: 12.5 mg/kg/injection, schedule: Q07DX005 (ip), vehicle: suspension in saline",165 % of control
same,T/C,"endpoint: median tumor weight (est.), dose: 25.0 mg/kg/injection, schedule: Q07DX005 (ip), vehicle: suspension in saline",231 % of control and 88 % of control
same,T/C,"endpoint: median tumor weight (est.), dose: 50.0 mg/kg/injection, schedule: Q07DX005 (ip), vehicle: suspension in saline",112 % of control
same,T/C,"endpoint: median tumor weight (est.), dose: 200.0 mg/kg/injection, schedule: Q07DX005 (ip), vehicle: suspension in saline",102 % of control
CC1=NN(c2cccc(S(=O)(=O)O)c2)C(=O)C1N=Nc1cc(Cl)cc(S(=O)(=O)O)c1O.CC1=NN(c2cccc(S(=O)(=O)O)c2)C(=O)C1N=Nc1cc(Cl)cc(S(=O)(=O)O)c1O.[Cr] (stereo unspecified),T/C,"endpoint: median tumor weight change, dose: 125.0 mg/kg/injection, schedule: Q01DX001 (ip), vehicle: saline",245 % of control
same,T/C,"endpoint: median tumor weight change, dose: 250.0 mg/kg/injection, schedule: Q01DX001 (ip), vehicle: saline",184 % of control
C1CC[N-]CC1.C1CC[N-]CC1.C1CC[N-]CC1.[Cl][Rh]([Cl])[Cl],T/C,"endpoint: median tumor weight (est.), dose: 6.25 mg/kg/injection, schedule: Q07DX005 (ip), vehicle: saline",112 % of control
same,T/C,"endpoint: median tumor weight (est.), dose: 8.0 mg/kg/injection, schedule: Q07DX005 (ip), vehicle: saline",118 % of control
same,T/C,"endpoint: median tumor weight (est.), dose: 12.5 mg/kg/injection, schedule: Q07DX005 (ip), vehicle: saline",100 % of control
same,T/C,"endpoint: median tumor weight (est.), dose: 25.0 mg/kg/injection, schedule: Q07DX005 (ip), vehicle: saline",73 % of control
same,T/C,"endpoint: median tumor weight (est.), dose: 32.0 mg/kg/injection, schedule: Q07DX005 (ip), vehicle: saline",61 % of control
same,T/C,[5],84 % of control
same,T/C,"endpoint: median tumor weight (est.), dose: 64.0 mg/kg/injection, schedule: Q07DX005 (ip), vehicle: saline",47 % of control
same,T/C,[1],45 % of control
O=C(Nc1ccccc1C(=O)O)c1cc([N+](=O)[O-])cc([N+](=O)[O-])c1,T/C,"endpoint: median tumor weight change, dose: 125.0 mg/kg/injection, schedule: Q01DX001 (ip), vehicle: saline with Tween-80",192 % of control
same,T/C,"endpoint: median tumor weight change, dose: 250.0 mg/kg/injection, schedule: Q01DX001 (ip), vehicle: saline with Tween-80",117 % of control
C[C@]12CCC(=O)C=C1CC[C@@H]1[C@@H]2[C@@H](O)C[C@@]2(C)[C@H]1CC[C@]2(O)C(=O)CO,T/C,[6],76 % of control
same,T/C,[7],95 % of control
same,T/C,[8],60 % of control
same,T/C,[9],29 % of control
same,T/C,"endpoint: median tumor weight (est.), dose: 800.0 mg/kg/injection, schedule: Q07DX005 (ip), vehicle: Klucel (hydroxypropylcellulose) (HPC)",21 % of control
same,T/C,"endpoint: median tumor weight change, dose: 100.0 mg/kg/injection, schedule: Q01DX001 (ip), vehicle: Klucel (hydroxypropylcellulose) (HPC)",101 % of control
same,T/C,"endpoint: median tumor weight change, dose: 200.0 mg/kg/injection, schedule: Q01DX001 (ip), vehicle: Klucel (hydroxypropylcellulose) (HPC)",99 % of control
same,T/C,"endpoint: median tumor weight change, dose: 400.0 mg/kg/injection, schedule: Q01DX001 (ip), vehicle: Klucel (hydroxypropylcellulose) (HPC)",110 % of control
same,T/C,"endpoint: median tumor weight change, dose: 800.0 mg/kg/injection, schedule: Q01DX001 (ip), vehicle: Klucel (hydroxypropylcellulose) (HPC)",57 % of control
O=C1C2(Cl)C3(Cl)C4(Cl)C(Cl)(Cl)C5(Cl)[C@]3(Cl)C1(Cl)[C@]5(Cl)C24Cl (stereo partly specified),T/C,[10],71 % of control
same,T/C,[11],91 % of control
same,T/C,[6],67 % of control
O=S(=O)(SC(S(=O)(=O)c1ccccc1)S(=O)(=O)c1ccccc1)c1ccccc1,T/C,[11],55 % of control
same,T/C,[6],90 % of control
same,T/C,[8],112 % of control
same,T/C,[9],70 % of control
CNC(=O)OCc1c(COC(=O)NC)c(-c2ccc(F)cc2)n2c1CCC2,T/C,"endpoint: median tumor weight (est.), dose: 3.12 mg/kg/injection, schedule: Q07DX005 (ip), vehicle: Klucel (hydroxypropylcellulose) (HPC)",49 % of control
same,T/C,"endpoint: median tumor weight (est.), dose: 6.25 mg/kg/injection, schedule: Q07DX005 (ip), vehicle: Klucel (hydroxypropylcellulose) (HPC)",63 % of control
same,T/C,[10],84 % of control
same,T/C,[11],48 % of control
same,T/C,[6],39 % of control
O=NN(CCCl)C(=O)Oc1ccc(OC(=O)N(CCCl)N=O)cc1,T/C,"endpoint: median tumor weight change, dose: 25.0 mg/kg/injection, schedule: Q01DX001 (ip), vehicle: Klucel (hydroxypropylcellulose) (HPC)",107 % of control
same,T/C,"endpoint: median tumor weight change, dose: 50.0 mg/kg/injection, schedule: Q01DX001 (ip), vehicle: Klucel (hydroxypropylcellulose) (HPC)",75 % of control
CNC(=O)c1cccc2c(Nc3ccc(NS(C)(=O)=O)cc3OC)c3cccc(C)c3nc12,T/C,"endpoint: median tumor weight change, dose: 60.0 mg/kg/injection, schedule: Q01DX001 (ip), vehicle: water",6 % of control
same,T/C,"endpoint: median tumor weight change, dose: 62.5 mg/kg/injection, schedule: Q01DX001 (ip), vehicle: water",-63 % of control
same,T/C,"endpoint: median tumor weight change, dose: 120.0 mg/kg/injection, schedule: Q01DX001 (ip), vehicle: other",-68 % of control
CCOC(=O)C1C2OC(=O)C(C(=O)C2CN(CCCl)CCCl)C1C1CC=C(CC2=CCC(C3C4C(=O)OC(C(CN(CCCl)CCCl)C4=O)C3C(=O)OCC)CC2)CC1 (stereo unspecified),T/C,[10],49 % of control
same,T/C,[11],70 % of control
same,T/C,[6],31 % of control
same,T/C,[7],1 % of control
N=C(N)SCc1c2ccccc2c(CSC(=N)N)c2ccccc12,T/C,[5],105 % of control and 119 % of control
same,T/C,[1],107 % of control
same,T/C,[2],25 % of control
same,T/C,"endpoint: median tumor weight change, dose: 50.0 mg/kg/injection, schedule: Q01DX001 (ip), vehicle: saline + alcohol",77 % of control
same,T/C,"endpoint: median tumor weight change, dose: 50.0 mg/kg/injection, schedule: Q01DX001 (ip), vehicle: suspension in saline",90 % of control
same,T/C,"endpoint: median tumor weight change, dose: 100.0 mg/kg/injection, schedule: Q01DX001 (ip), vehicle: saline + alcohol",99 % of control
same,T/C,"endpoint: median tumor weight change, dose: 100.0 mg/kg/injection, schedule: Q01DX001 (ip), vehicle: suspension in saline",102 % of control and 111 % of control
same,T/C,"endpoint: median tumor weight change, dose: 200.0 mg/kg/injection, schedule: Q01DX001 (ip), vehicle: saline + alcohol",58 % of control
same,T/C,"endpoint: median tumor weight change, dose: 200.0 mg/kg/injection, schedule: Q01DX001 (ip), vehicle: suspension in saline",84 % of control and 86 % of control
same,T/C,"endpoint: median tumor weight change, dose: 400.0 mg/kg/injection, schedule: Q01DX001 (ip), vehicle: saline + alcohol",31 % of control
CC(=O)OC1C(O)C(C)OC(OC2C(OC(=O)C3CCC4C(C3)OC3(CC(OC(=O)/C=C/c5ccccc5)C(C)CO3)C43CO3)OC(C)C(O)C2OC(C)=O)C1O (stereo unspecified),T/C,"endpoint: median tumor weight change, dose: 10.0 mg/kg/injection, schedule: Q01DX001 (ip), vehicle: distilled water + Tween-80",107 % of control
same,T/C,"endpoint: median tumor weight change, dose: 40.0 mg/kg/injection, schedule: Q01DX001 (ip), vehicle: distilled water + Tween-80",100 % of control
same,T/C,"endpoint: median tumor weight change, dose: 80.0 mg/kg/injection, schedule: Q01DX001 (ip), vehicle: distilled water + Tween-80",110 % of control
